Test results as given in ChEMBL document CHEMBL1201862, “PubChem BioAssay data set” (2004).
The source made the active and inactive calls. For most assays here, no stated cut-off is given here; in the data, actives have a measured IC50 and inactives only a lower limit.

Experiments:
Assay type in all cases: functional
[1] = biological target: Melanin-concentrating hormone receptor 1 (Homo sapiens, UniProt Q99705); experiment: Late-stage fluorescence-based counterscreen for antagonists of the G-protein coupled receptor 7 (GPR7): cell-based dose response assay to identify antagonists of the melanin-concentrating hormone receptor 1 (MCHR1) Set 6.
Sequence of Melanin-concentrating hormone receptor 1 (Q99705 whole entry): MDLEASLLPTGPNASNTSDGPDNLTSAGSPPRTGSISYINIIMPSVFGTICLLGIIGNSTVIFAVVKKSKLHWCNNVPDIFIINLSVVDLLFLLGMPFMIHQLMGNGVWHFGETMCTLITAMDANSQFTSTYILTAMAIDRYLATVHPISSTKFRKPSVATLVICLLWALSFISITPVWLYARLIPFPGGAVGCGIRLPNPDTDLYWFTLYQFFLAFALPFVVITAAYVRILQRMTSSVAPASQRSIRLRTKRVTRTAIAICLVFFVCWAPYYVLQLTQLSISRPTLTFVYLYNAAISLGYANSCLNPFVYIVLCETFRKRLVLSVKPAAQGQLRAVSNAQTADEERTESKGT

[2] = biological target: T1, Neuropeptides B/W receptor type 1 (Homo sapiens, UniProt P48145); experiment: human NPBW1 receptor blockade, IC50 – cell-based, fluorescence, dose response, set 6, late-stage follow-up (AID 588583)
T1 sequence (P48145 whole entry): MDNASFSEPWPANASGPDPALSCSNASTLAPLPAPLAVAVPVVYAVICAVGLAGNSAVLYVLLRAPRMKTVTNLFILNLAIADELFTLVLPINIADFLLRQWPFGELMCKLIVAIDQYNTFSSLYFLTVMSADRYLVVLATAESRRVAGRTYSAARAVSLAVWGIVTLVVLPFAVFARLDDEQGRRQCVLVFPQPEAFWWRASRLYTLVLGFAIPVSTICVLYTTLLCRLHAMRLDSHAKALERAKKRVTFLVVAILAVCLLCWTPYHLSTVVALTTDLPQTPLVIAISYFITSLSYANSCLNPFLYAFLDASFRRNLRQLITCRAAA

[3] = biological target: T2, Sentrin-specific protease 6 (Homo sapiens, UniProt Q9GZR1); experiment: inhibition of human SENP6 catalytic domain – biochemical, luminescence, set 2, SAR follow-up (AID 588598)
T2 sequence (Q9GZR1 whole entry): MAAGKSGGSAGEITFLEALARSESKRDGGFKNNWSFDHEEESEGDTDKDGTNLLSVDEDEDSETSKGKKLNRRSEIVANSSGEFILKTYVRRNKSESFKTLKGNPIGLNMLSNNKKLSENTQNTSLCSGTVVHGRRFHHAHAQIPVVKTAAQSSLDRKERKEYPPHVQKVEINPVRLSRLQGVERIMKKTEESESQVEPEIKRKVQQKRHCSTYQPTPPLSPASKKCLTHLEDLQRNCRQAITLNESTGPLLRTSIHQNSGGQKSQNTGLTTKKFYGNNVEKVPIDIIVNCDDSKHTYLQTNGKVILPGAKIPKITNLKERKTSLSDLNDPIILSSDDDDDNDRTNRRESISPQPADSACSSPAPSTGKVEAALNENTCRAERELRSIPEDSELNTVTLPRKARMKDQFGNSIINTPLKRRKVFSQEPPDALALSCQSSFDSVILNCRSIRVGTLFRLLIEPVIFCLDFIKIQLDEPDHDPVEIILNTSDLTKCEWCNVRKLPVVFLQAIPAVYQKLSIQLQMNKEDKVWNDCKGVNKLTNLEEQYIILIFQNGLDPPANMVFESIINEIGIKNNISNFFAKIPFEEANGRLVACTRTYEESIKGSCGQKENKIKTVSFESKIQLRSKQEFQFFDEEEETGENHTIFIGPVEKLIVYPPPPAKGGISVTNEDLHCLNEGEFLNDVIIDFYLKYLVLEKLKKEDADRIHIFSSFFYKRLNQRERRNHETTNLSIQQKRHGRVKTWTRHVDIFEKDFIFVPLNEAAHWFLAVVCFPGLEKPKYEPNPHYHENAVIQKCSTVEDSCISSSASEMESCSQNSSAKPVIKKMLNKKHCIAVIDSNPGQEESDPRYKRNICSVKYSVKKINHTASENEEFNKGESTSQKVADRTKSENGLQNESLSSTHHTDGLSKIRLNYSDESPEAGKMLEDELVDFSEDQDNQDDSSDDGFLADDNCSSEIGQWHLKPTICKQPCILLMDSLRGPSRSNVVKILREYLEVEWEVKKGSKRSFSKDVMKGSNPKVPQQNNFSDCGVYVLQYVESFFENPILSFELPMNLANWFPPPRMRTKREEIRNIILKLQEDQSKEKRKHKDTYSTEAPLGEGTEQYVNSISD

[4] = biological target: T2, Sentrin-specific protease 6; experiment: SAR Analysis of small molecule inhibitors of Sentrin-specific protease 6 (SENP6) using a Luminescent assay. [Related pubchem assays (depositor defined):AID2582, AID2599]
[5] = biological target: T3, Caspase-3 (Homo sapiens, UniProt P42574); experiment: inhibition of recombinant caspase-3 activity – biochemical, luminescence, set 2, selectivity assay for SENP protease inhibitor project, SAR follow-up (AID 588599)
T3 sequence (P42574 whole entry): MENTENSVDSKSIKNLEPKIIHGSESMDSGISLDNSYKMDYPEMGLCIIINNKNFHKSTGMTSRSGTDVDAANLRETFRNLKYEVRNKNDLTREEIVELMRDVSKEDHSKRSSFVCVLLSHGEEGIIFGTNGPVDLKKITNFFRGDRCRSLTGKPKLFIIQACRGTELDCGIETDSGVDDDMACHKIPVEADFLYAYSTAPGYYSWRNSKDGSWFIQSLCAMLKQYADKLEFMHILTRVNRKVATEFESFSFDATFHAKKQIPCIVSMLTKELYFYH

[6] = biological target: T3, Caspase-3; experiment: SAR Analysis of small molecule inhibitors of Sentrin-specific proteases (SENPs) using a Caspase-3 Selectivity assay. [Related pubchem assays (depositor defined):AID2540, AID2599, AID434973, AID489001]
[7] = biological target: T4, Sentrin-specific protease 7 (Homo sapiens, UniProt Q9BQF6); experiment: inhibition of human SENP7 cleavage activity – biochemical, luminescence, SAR follow-up (AID 504497)
T4 sequence (Q9BQF6 whole entry): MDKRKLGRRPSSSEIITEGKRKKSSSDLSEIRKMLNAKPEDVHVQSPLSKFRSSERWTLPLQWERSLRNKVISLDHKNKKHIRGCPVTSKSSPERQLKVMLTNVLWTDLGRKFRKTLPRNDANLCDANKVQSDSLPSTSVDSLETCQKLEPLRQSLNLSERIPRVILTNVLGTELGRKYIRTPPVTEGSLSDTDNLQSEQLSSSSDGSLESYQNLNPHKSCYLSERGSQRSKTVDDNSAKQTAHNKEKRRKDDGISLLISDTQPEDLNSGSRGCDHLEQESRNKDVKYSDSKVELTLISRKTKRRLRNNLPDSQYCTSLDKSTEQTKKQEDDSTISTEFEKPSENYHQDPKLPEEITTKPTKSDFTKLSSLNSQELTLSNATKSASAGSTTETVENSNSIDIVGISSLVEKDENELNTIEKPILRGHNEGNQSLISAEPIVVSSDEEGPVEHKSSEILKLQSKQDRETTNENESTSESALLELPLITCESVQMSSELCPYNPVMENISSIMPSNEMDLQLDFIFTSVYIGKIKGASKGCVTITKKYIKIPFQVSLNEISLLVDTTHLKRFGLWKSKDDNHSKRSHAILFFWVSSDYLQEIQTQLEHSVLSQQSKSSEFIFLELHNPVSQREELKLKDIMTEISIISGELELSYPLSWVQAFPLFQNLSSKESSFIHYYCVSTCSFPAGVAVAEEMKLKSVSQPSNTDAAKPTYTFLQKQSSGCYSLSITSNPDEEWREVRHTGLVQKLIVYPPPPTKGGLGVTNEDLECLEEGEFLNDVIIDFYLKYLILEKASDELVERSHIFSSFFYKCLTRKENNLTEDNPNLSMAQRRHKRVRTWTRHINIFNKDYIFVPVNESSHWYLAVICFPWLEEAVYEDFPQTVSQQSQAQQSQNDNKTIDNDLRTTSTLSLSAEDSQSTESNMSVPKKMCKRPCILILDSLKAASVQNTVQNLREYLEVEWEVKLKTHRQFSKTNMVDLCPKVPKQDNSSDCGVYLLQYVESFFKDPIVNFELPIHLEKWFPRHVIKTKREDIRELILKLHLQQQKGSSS

[8] = biological target: T5, Sentrin-specific protease 8 (Homo sapiens, UniProt Q96LD8); experiment: inhibition of human SENP8 cleavage activity – biochemical, luminescence, SAR follow-up (AID 504501)
T5 sequence (Q96LD8 whole entry): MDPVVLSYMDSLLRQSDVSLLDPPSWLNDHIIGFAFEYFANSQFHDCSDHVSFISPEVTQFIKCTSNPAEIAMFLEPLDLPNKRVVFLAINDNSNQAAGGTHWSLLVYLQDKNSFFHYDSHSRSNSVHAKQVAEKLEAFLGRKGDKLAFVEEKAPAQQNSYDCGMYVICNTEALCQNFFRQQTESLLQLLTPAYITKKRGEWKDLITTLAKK

[9] = biological target: T5, Sentrin-specific protease 8; experiment: inhibition of sentrin protease 8 – biochemical, luminescence, set 2, SAR follow-up (AID 588601)
[10] = biological target: T4, Sentrin-specific protease 7; experiment: inhibition of human SENP7 cleavage activity – biochemical, luminescence, set 2, SAR follow-up (AID 588600)
[11] = biological target: Aurora kinase A (Homo sapiens, UniProt O14965);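 further: value from the Navigating the Kinome kinase panel profiling, panel entry STK6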
Sequence of Aurora kinase A (O14965 whole entry): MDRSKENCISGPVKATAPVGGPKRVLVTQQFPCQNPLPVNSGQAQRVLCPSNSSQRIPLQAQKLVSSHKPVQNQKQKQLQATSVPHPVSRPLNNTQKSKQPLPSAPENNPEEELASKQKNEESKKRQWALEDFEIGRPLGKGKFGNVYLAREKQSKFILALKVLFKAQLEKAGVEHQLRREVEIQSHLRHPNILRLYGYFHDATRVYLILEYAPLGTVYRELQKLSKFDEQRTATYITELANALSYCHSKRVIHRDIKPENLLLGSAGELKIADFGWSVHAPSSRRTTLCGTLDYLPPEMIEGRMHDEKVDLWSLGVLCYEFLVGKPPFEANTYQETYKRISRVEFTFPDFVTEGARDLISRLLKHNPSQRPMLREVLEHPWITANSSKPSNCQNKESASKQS

[12] = biological target: Vascular endothelial growth factor receptor 2 (Homo sapiens, UniProt P35968)
Sequence of Vascular endothelial growth factor receptor 2 (P35968 whole entry): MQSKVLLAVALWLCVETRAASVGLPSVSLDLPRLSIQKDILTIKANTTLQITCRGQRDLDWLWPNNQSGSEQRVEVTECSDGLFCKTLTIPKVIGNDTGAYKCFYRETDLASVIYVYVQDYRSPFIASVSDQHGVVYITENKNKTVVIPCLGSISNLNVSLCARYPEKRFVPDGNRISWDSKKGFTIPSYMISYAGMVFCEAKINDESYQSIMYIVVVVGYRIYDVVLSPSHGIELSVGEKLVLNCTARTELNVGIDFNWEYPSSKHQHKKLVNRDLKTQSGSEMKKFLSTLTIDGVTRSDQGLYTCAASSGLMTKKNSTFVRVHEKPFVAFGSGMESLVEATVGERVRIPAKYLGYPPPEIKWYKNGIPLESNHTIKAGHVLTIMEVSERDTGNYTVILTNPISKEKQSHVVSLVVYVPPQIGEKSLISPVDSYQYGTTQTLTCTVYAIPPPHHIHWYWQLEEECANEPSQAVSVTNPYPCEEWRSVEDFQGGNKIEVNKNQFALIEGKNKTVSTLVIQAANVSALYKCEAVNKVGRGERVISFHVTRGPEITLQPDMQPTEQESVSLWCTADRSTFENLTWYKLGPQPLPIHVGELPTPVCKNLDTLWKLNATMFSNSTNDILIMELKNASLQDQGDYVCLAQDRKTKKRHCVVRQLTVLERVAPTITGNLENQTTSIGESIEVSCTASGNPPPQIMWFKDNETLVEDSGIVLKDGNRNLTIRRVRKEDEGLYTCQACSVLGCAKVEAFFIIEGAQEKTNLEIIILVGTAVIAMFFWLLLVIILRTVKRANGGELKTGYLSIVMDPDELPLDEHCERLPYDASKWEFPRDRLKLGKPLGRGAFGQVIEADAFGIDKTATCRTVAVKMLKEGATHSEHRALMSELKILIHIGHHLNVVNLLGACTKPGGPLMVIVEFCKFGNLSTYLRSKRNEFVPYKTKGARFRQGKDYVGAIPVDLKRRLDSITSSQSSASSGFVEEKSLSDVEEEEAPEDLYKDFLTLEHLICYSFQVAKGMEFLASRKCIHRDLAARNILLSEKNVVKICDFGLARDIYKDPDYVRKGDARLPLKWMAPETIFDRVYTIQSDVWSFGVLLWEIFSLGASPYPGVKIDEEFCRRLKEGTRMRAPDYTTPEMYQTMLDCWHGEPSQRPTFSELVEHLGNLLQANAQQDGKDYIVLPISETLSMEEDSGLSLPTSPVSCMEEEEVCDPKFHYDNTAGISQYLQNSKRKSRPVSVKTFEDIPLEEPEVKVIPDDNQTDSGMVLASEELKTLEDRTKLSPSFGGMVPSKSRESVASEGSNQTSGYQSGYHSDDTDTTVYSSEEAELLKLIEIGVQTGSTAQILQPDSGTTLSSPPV

[13] = biological target: Aurora kinase B (Homo sapiens, UniProt Q96GD4)
Sequence of Aurora kinase B (Q96GD4 whole entry): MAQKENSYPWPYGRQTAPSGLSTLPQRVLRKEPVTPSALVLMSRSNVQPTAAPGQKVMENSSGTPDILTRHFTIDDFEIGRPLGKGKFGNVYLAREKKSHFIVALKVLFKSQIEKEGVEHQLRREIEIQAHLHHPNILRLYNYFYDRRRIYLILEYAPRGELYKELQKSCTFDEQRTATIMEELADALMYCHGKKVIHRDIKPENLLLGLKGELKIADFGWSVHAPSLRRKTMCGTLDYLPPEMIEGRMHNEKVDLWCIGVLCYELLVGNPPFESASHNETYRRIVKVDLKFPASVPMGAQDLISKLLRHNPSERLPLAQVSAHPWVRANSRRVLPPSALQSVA

[14] = biological target: T6, Apoptotic protease-activating factor 1 (Homo sapiens, UniProt O14727); experiment: SAR analysis of small molecule Activators of Apaf-1 in a Fluorescent assay.; conditions: read-out: EC50_Mean;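 further: caspase-3 cleavage of fluorogenic Rh110 DEVD substrate downstream of apoptosome activation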
T6 sequence (O14727 whole entry): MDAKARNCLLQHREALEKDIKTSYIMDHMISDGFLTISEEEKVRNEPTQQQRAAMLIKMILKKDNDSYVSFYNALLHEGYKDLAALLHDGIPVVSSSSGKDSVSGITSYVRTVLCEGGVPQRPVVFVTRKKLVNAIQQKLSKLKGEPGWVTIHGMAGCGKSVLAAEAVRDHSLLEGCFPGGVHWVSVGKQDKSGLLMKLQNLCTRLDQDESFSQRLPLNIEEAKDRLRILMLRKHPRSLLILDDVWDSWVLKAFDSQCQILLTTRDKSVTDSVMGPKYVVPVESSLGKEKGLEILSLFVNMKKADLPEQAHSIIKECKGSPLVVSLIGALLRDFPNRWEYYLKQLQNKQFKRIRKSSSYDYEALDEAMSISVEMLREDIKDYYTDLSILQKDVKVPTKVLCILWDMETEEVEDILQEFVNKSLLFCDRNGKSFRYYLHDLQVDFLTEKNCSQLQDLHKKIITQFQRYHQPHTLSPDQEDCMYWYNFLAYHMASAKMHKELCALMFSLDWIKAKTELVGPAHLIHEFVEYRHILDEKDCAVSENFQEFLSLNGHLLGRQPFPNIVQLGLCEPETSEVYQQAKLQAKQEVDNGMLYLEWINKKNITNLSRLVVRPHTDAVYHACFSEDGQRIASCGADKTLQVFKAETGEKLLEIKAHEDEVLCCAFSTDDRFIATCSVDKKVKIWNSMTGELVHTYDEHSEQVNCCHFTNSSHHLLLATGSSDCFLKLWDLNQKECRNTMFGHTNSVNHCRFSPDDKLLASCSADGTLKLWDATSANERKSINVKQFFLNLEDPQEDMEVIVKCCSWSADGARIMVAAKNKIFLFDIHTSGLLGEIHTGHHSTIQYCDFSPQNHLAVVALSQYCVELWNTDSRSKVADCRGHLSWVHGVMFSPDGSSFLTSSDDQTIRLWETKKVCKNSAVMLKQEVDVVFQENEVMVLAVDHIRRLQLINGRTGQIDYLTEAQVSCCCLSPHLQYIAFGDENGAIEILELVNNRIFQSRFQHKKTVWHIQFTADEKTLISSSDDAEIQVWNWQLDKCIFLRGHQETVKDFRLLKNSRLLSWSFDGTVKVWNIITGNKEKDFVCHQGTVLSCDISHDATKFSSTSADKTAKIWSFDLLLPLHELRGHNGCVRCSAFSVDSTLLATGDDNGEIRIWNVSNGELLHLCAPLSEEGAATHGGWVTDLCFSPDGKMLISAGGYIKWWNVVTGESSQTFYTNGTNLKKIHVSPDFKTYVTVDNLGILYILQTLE

IC50 [1] | IC50 [2] | IC50 [3] | IC50 [4] | IC50 [5] | IC50 [6] | IC50 [7] | IC50 [10] | Structure (SMILES) | IC50 [8] | IC50 [9] | other results
2.99 µM (active) | 2.99 µM (active) | – | – | – | – | – | – | COc1ccc(Oc2c(CO)cnn(Cc3cccc4ccccc34)c2=O)cc1 | – | – | –
1.07 µM (active) | 1.07 µM (active) | – | – | – | – | – | – | N#CC(c1cccs1)c1c(Cl)cnn(Cc2cccc3ccccc23)c1=O (centres undefined) | – | – | –
– | – | 1.84 µM (active) | 2.8 µM (active) | 5.28 µM (active) | 6.2 µM (active) | 1.9 µM (active) | 1.96 µM (active) | CCCCc1ccc2nc(NC(=O)c3ccsc3)sc2c1 | 3.1 µM (active) | 1.8 µM (active) | –
– | – | – | – | – | – | – | – | Cc1ccc(-c2nc3ccc(Br)cc3c(C(=O)O)c2CC(=O)O)cc1 | – | – | Ki [11]: 0.0794 µM (active); Ki [12]: 0.501 µM (active); Ki [13]: 0.158 µM (active)
– | – | 16.7 µM (active) | 49 µM (active) | 48.6 µM (active) | 52 µM (active) | 16 µM (active) | 14.9 µM (active) | Cc1cccc(-c2nc(/C=C/c3ccccc3)no2)c1 | 48 µM (active) | 16.7 µM (active) | –
– | – | – | – | – | – | – | – | CCOc1ccccc1NC(=O)CCS(=O)(=O)c1ccc2c(c1)oc(=O)n2C | – | – | EC50 [14]: > 100 µM (inactive)
